Measurements as given in PubChem BioAssay (NCI).
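Five compound concentrations were applied to cells in 96-well plates for 48 hours; endpoints were derived by simple linear interpolation of the resulting dose-response curve. The concentration for 50% growth inhibition is given as GI50. Definition used: TGI = concentration required for complete inhibition of growth.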

Key:
Assay in all cases: inhibition of tumour cell growth, NCI panel, 48 h
[1] = test system: SK-MEL-2 melanoma
[2] = test system: TK-10 renal
[3] = test system: SNB-75 CNS
[4] = test system: IGROV1 ovarian
[5] = test system: NCI-H23 lung
[6] = test system: HCT-15 colon
[7] = test system: HS 578T breast
[8] = test system: MCF7 breast
[9] = test system: OVCAR-3 ovarian
[10] = test system: T-47D breast

Row | SMILES | GI50 [1] | TGI [1] | GI50 [2] | TGI [2] | GI50 [3] | TGI [3] | GI50 [4] | TGI [4] | GI50 [5] | TGI [5] | GI50 [6] | TGI [6] | GI50 [7] | TGI [7] | GI50 [8] | TGI [8] | GI50 [9] | TGI [9] | GI50 [10] | TGI [10]
1 | Nc1ccccc1NC(=O)c1ccc(CN2CCC/C(=C\c3cccc(Cl)c3)C2=O)cc1 | 1.23 µM | 18.2 µM | 1.11 µM | 5.88 µM | 0.284 µM | 9.04 µM | 0.337 µM | 13.6 µM | 0.342 µM | 24.2 µM | 0.0419 µM | > 100 µM | 0.321 µM | > 100 µM | 0.0332 µM | 26.6 µM | 0.406 µM | 7.7 µM | 3.34 µM | 56.6 µM
2 | N#CN1CCC[C@H]1C(=O)N1CCc2c(-c3[nH]nc4ncccc34)cccc21 | < 0.01 µM | 18.2 µM | 0.525 µM | 4.17 µM | 0.211 µM | 2.78 µM | 0.0862 µM | 12.6 µM | < 0.01 µM | 17.3 µM | < 0.01 µM | 11.3 µM | 0.239 µM | > 100 µM | < 0.01 µM | 11 µM | < 0.01 µM | < 0.01 µM | 0.0227 µM | 15 µM
3 | C#COc1cccc(Nc2ncnc3ncc(NC(=O)CCl)cc23)c1 | > 57.7 µM | > 62.5 µM | 62 µM | > 62.5 µM | > 60.1 µM | > 62.5 µM |  | > 26.1 µM | > 62.5 µM | > 62.5 µM | > 14 µM | > 62.5 µM | > 62.5 µM | > 62.5 µM | > 16.6 µM | > 62.5 µM | > 25 µM | > 62.5 µM | > 62.5 µM | > 62.5 µM
4 | N#Cc1c(NC(=O)CN2CCOCC2)sc2c1CCCC2 | > 25 µM | > 25 µM | > 25 µM | > 25 µM | > 25 µM | > 25 µM | > 25 µM | > 25 µM | > 25 µM | > 25 µM | > 25 µM | > 25 µM | > 25 µM | > 25 µM | > 25 µM | > 25 µM | > 25 µM | > 25 µM | > 25 µM | > 25 µM
